The results in this text go back to patent US20130047297A1, “POLYNUCLEOTIDE MOLECULES FOR GENE REGULATION IN PLANTS” (priority 2010, published 2013).

Format in all cases: in vivo
Series [1] has as its system Glyphosate-resistant Palmer amaranth plants (33, 36, or 57 copies EPSPS). Briefly: Spermine, spermidine or ammonium sulfate with dsRNA then glyphosate (Example 35, FIG. 39). As to conditions: 10 mM spermidine alone. As to the method: The effect of the polyamine cations spermine (N,N′-bis(3-aminopropyl)butane-1,4-diamine) and spermidine (N-(3-aminopropyl)butane-1,4-diamine) on herbicidal activity of topically applied polynucleotides (RNA) on glyphosate-resistant Palmer amaranth plants was investigated. […] The dsRNA polynucleotide solutions were prepared with either 1 or 10 millimolar spermine or spermidine or 2% ammonium sulfate, in a 10 millimolar sodium phosphate (pH 6.8) buffer. Control solutions (without polynucleotides) were prepared with either 1 or 10 millimolar spermine or spermidine or 2% ammonium sulfate, in a 10 millimolar sodium phosphate (pH 6.8) buffer. Glyphosate-resistant Palmer amaranth plants (33, 36, or 57 copies EPSPS) were pre-sprayed with 1% Silwet L-77. The dsRNA polynucleotide solutions (11.6 grams/acre) or buffer solutions were applied as drops on four lower fully expanded leaves of glyphos ate resistant Palmer amaranth by pipetting. Two days following polynucleotide treatment the plants were sprayed with glyphosate (3360 g acid equivalent per hectare of Roundup® WeatherMAX® brand herbicide).

In series [2] the test system is Nicotiana benthamiana phytoene desaturase. The series is described as follows: Topical oligonucleotides/polynucleotides on tobacco, PDS bleaching and chlorophyll (Example 10). As to the method: The following procedure was used for all assays described in this example. Four-week old Nicotiana benthamiana plants were used in all assays. Plants were treated with 0.1% Silwet L-77 solution freshly made with ddH2O. Two fully expanded leaves per plant (one cotyledon, one true leaf) were dipped into the Silwet L-77 solution for a few seconds, and allowed to dry for 15-30 minutes before application of the polynucleotide composition. Final concentration for each oligonucleotide or polynucleotide was 25 microM (in 0.01% Silwet L-77, 5 mM sodium phosphate buffer, pH 6.8) unless otherwise stated. 20 microliters of the solution was applied to the top surface of each of the two pre-treated leaves to provide a total of 40 microliters (1 nmol oligonucleotide or polynucleotide) for each plant. Leaf bleaching was observed 3 days post treatment.
FIG. 13 illustrates phenotypes observed at day 12 after treatment in another assay of the effect from twelve combinations of polynucleotides or oligonucleotides (see Table 4). Table 4 also lists observations of visible bleaching of the plants at day 5 after treatment and the results of chlorophyll measurements taken at days 7 and 12 after treatment. Chlorophyll measurements are an indication of suppression of the target gene phytoene desaturase, and measurements were taken at 6 spots on the apical area, focussing on visibly bleached leaves or (in plants without visible bleaching) on leaves in equivalent locations on the plants; lower chlorophyll measurement values indicate suppression of phytoene desaturase.

The test system of series [3] is endogenous PDS, EPSPS, or RuBisCO genes from Nicotiana benthamiana. The series is described as follows: PDS, EPSPS, RuBisCO anti-sense polynucleotides on Nicotiana benthamiana, plant height (Example 33). The settings on record: PDS 25 nanomoles, EPSPS and RuBisCO 50 nanomoles of each per plant. The procedure:
Nicotiana benthamiana plants were treated using a procedure similar to that described in Example 12. Polynucleotide solution (or mixed polynucleotides in the case of EPSPS and RuBisCO) were prepared in 0.01% (v/v) Silwet L-77 and 2% (w/v) ammonium sulfate in 5 millimolar sodium phosphate, pH 6.8. Two fully expanded leaves per plant were dipped into 0.1% Silwet L-77 solution freshly made with ddH2O for a few seconds, and allowed to dry. About 30 minutes later, 20 microliters of polynucleotide solution, was applied to each of the two pre-treated leaves. For PDS, each of 5 plants received 25 nanomoles of the PDS anti-sense polynucleotide (SEQ ID NO:34); for EPSPS, each of 5 plants received 50 nanomoles of each EPSPS anti-sense polynucleotide (SEQ ID NOS:279-284); and for RuBisCO, each of 5 plants received 50 nanomoles of each RuBisCO anti-sense polynucleotide (SEQ ID NOS:288-295). Paired control plants were treated with buffer (0.01% (v/v) Silwet L-77 and 2% (w/v) ammonium sulfate in 5 millimolar sodium phosphate, pH 6.8).

Series [4] relates to endogenous Nicotiana benthamiana Argonaute-1 (AGO1) gene. The series is described as follows: AGO1 anti-sense with PDS anti-sense, systemic bleaching (Example 33). As to conditions: PDS 25 nanomoles; AGO1 50 nanomoles of each of 14; combined applied on separate leaves. As to the method: Nicotiana benthamiana plants were treated using a procedure similar to that described in Example 12. Polynucleotide solution (or mixed polynucleotides in the case of AGO1) were prepared in 0.01% (v/v) Silwet L-77 and 2% (w/v) ammonium sulfate in 5 millimolar sodium phosphate, pH 6.8. Two fully expanded leaves per plant were dipped into 0.1% Silwet L-77 solution freshly made with ddH2O for a few seconds, and allowed to dry. About 30 minutes later, 20 microliters of polynucleotide solution was applied to each of the two pre-treated leaves. For PDS, each of 5 plants received 25 nanomoles of the PDS anti-sense polynucleotide (SEQ ID NO:34); for AGO1, each of 5 plants received 50 nanomoles of each of the 14 AGO1 anti-sense polynucleotides (SEQ ID NOS:300-313); for PDS and AGO combined treatments, each of 5 plants received 25 nanomoles of the PDS anti-sense polynucleotide (SEQ ID NO:34) and 50 nanomoles of each of the 14 AGO1 anti-sense polynucleotides (SEQ ID NOS:300-313) applied on separate leaves. Paired control plants were treated with buffer (0.01% (v/v) Silwet L-77 and 2% (w/v) ammonium sulfate in 5 millimolar sodium phosphate, pH 6.8). No difference was observed between plants treated with the AGO1 anti-sense polynucleotides and the plants treated with buffer alone.

With `NCCCCNCCCN` [spermidine, N-(3-aminopropyl)butane-1,4-diamine], the “plant outcome, 33-copy” value in series [1] is on record as “stunted”.
“PDS 21-mer anti-sense ssDNA: SEQ ID NO:34 (antisense CATCTCCTTTAATTGTACTGC; DNA, backbone not given here)”: the “bleaching of apical leaves (FIG. 15)” value in series [2] (another assay) is “strong bleaching”. For the same compound, the “bleaching of apical leaves (FIG. 14)” value in series [2] (topical treatment) is given as “Strong bleaching”. Further, in series [3] (12 days (PDS and EPSPS) or 10 days (RuBisCO) after treatment), the “plant height (FIG. 36)” value is listed as “severe stunting”. The other phenotype entry in series [3] was “bleaching”. The “systemic bleaching / difference from buffer” value in series [4] is recorded as “displayed systemic bleaching”.
